Test results from US20230271950A1, “ANTIBACTERIAL PICOLINAMIDE COMPOUNDS” (University of Notre Dame Du Lac, priority 2020, published 2023).
Values after ≈ are worked out from the molar mass of the structure shown. Like-named read-outs stand apart in the source and are kept apart here.

Experiments:
[1] = test system: MRSA (NRS70, NRS119); assay: MIC against MRSA strains; format: cell-based, Staphylococcus aureus; conditions: Staphylococcus aureus, MRSA NRS70; Table 7; read-out: MIC
[2] = test system: Fusobacterium nucleatum; assay: MIC against gut bacterium Fusobacterium nucleatum; format: cell-based; conditions: Fusobacterium nucleatum, Fusobacterium nucleatum strain HM-992; Table 7; read-out: MIC
[3] = test system: Bifidobacterium longum; assay: MIC against gut bacterium Bifidobacterium longum; format: cell-based; conditions: Bifidobacterium longum, Bifidobacterium longum strain HM-846; Table 7; read-out: MIC
[4] = test system: E. faecium NCTC7171; assay: MIC against E. faecium; format: cell-based, Enterococcus faecium; conditions: Enterococcus faecium, NCTC7171; E. faecium NCTC 7171; Table 10, unit inferred; read-out: Activity (MIC) against E. faecium
[5] = test system: S. aureus ATCC29213; assay: MIC against MSSA; format: cell-based, Staphylococcus aureus; conditions: Staphylococcus aureus; MSSA ATCC 29213; Table 10, unit inferred; read-out: Activity (MIC) against S. aureus
[6] = test system: Lactobacillus reuteri; assay: MIC against gut bacterium Lactobacillus reuteri; format: cell-based; conditions: Limosilactobacillus reuteri; Lactobacillus reuteri strain HM-102; Table 7; read-out: MIC
[7] = test system: Bacteroides fragilis; assay: MIC against gut bacterium Bacteroides fragilis; format: cell-based; conditions: Bacteroides fragilis, Bacteroides fragilis strain HM-709; Table 7; read-out: MIC
[8] = test system: Veillonella sp. HM-49; assay: MIC against gut bacterium Veillonella sp.; format: cell-based; conditions: SP.HM49; Veillonella sp. strain HM-49; Table 7; read-out: MIC
[9] = test system: Lactobacillus gasseri; assay: MIC against gut bacterium Lactobacillus gasseri; format: cell-based; conditions: Lactobacillus gasseri strain HM-644; Table 7; read-out: MIC
[10] = test system: C. difficile; assay: MIC by broth microdilution against C. difficile strains; format: cell-based, Clostridioides difficile; conditions: for MIC: Clostridioides difficile, read-out: MIC
[11] = test system: Corynebacterium spp.; assay: MIC against gut bacterium Corynebacterium spp.; format: cell-based; conditions: Corynebacterium, Corynebacterium spp. strain HM-784; Table 7
[12] = test system: Eubacterium sp.; assay: MIC against gut bacterium Eubacterium sp.; format: cell-based; conditions: Eubacterium, Eubacterium sp. strain HM-178; Table 7; read-out: MIC

O=C(Nc1ncco1)c1cc(Oc2cccc(OC(F)(F)F)c2)ccn1 [Compound 108, N-(Oxazol-2-yl)-4-(3-(trifluoromethoxy)phenoxy)picolinamide]
MIC [1]: 64 µg/mL (≈ 175 µM) | MIC [2]: 8 µg/mL (≈ 21.9 µM) | MIC [3]: 16 µg/mL (≈ 43.8 µM) | MIC [4]: 64 µg/mL (≈ 175 µM) | MIC [5]: 64 µg/mL (≈ 175 µM) | MIC [6]: 4 µg/mL (≈ 11 µM) | MIC [7]: 8 µg/mL (≈ 21.9 µM) | MIC [8]: 16 µg/mL (≈ 43.8 µM) | MIC [9]: > 16 µg/mL | MIC ([10]; ATCC43255, C. difficile ATCC43255, Table 7): 1 µg/mL (≈ 2.74 µM) | MIC ([10]; ATCC43598, C. difficile ATCC43598, Table 7): 0.5 µg/mL (≈ 1.37 µM) | MIC ([10]; BAA1801, C. difficile BAA-1801, Table 7): 0.25 µg/mL (≈ 0.684 µM) | MIC ([10]; BAA1803, C. difficile BAA-1803, Table 7): 0.5 µg/mL (≈ 1.37 µM) | MIC ([10]; BAA1804, C. difficile BAA-1804, Table 7): 0.25 µg/mL (≈ 0.684 µM) | MIC ([10]; BAA1812, C. difficile BAA-1812, Table 7): 1 µg/mL (≈ 2.74 µM) | MIC ([10]; BAA1814, C. difficile BAA-1814, Table 7): 0.25 µg/mL (≈ 0.684 µM) | MIC ([10]; BAA1870, C. difficile BAA-1870, Table 7): 0.5 µg/mL (≈ 1.37 µM) | MIC ([10]; C. difficile 23691 (VR, vancomycin-resistant), Table 7): 0.25 µg/mL (≈ 0.684 µM) | MIC ([10]; C. difficile 23828 (FR, fidaxomicin-resistant), Table 7): 1 µg/mL (≈ 2.74 µM) | MIC ([10]; C. difficile 24531 (VR, vancomycin-resistant), Table 7): 0.25 µg/mL (≈ 0.684 µM) | MIC ([10]; C. difficile 24923 (VR, vancomycin-resistant), Table 7): 0.25 µg/mL (≈ 0.684 µM) | MIC ([10]; C. difficile 26675 (MR, metronidazole-resistant), Table 7): 1 µg/mL (≈ 2.74 µM) | MIC ([10]; C. difficile 27081 (FR, fidaxomicin-resistant), Table 7): 0.25 µg/mL (≈ 0.684 µM) | MIC ([10]; C. difficile 27173 (MR, metronidazole-resistant), Table 7): 0.5 µg/mL (≈ 1.37 µM) | MIC ([10]; C. difficile NR49292, Table 7): 0.25 µg/mL (≈ 0.684 µM) | MIC ([10]; C. difficile NR49294, Table 7): 0.25 µg/mL (≈ 0.684 µM) | MIC ([10]; C. difficile NR49302, Table 7): 1 µg/mL (≈ 2.74 µM) | MIC ([10]; C. difficile NR49305, Table 7): 0.25 µg/mL (≈ 0.684 µM) | MIC ([10]; C. difficile NR49310, Table 7): 0.5 µg/mL (≈ 1.37 µM) | MIC ([10]; C. difficile NR49318, Table 7): 0.5 µg/mL (≈ 1.37 µM) | MIC ([10]; C. difficile, Table 8): 1 µg/mL (≈ 2.74 µM) | Selectivity ([10]; MIC MRSA NRS70/MIC C. difficile ATCC43255, Table 7): 64 | Selectivity ([10]; Table 8): 64 | MIC [11]: > 16 µg/mL | MIC [12]: 8 µg/mL (≈ 21.9 µM)
